In patent publication US7897593B2, “HIV integrase inhibitors” (priority 2006, dated 2011):

How the values were obtained:
[1] = biological target: T1, purified integrase (Human immunodeficiency virus type 1 group M subtype B, UniProt P12497); experiment: HIV-Integrase binding assay (competition with radiolabeled integrase inhibitor); conditions: competition with [3H]-labeled integrase inhibitor; Cheng and Prusoff
T1 construct: Recombinant integrase (0.26 ng) was incubated with the beads
Protocol: HIV-Integrase binding assay. In this assay competitive binding experiments with test compounds and a radiolabeled integrase inhibitor (compound A) are performed against purified integrase. […] Binding reactions were carried out in 96-well white polystyrene assay plates (Corning, #3600). The following was added sequentially to each well: 20 μl of water or 20μl of human serum (Cellgro Cat# 35-060-CL), 5 μl of serially diluted compound (in 50% DMSO/50% integrase SPA buffer), 5 μl of [^3H]-compound I (6,000 cpm/μl in SPA buffer) and 20 μl of bead/DNA/enzyme complex. The plates were shaken for 2 hours and then allowed to sit at room temperature without shaking overnight. The [^3H]-compound I binding was measured using a Topcount scintillation counter. Cheng and Prusoff equations were used to convert the inhibition of compound 1 binding into the corresponding Ki value. Activity equal to A refers to a compound having Ki=0.001 to 0.003 μM while B and C denote compounds having Ki=0.003 to 0.05 μM and Ki≧0.050 μM respectively.

[2] = test system: recombinant NL-Rluc virus; experiment: Inhibition of HIV replication; assay type: cell-based; conditions: Human immunodeficiency virus 1, read-out: Antiviral Activity, NL-RLuc virus; three serum conditions described, the one tabulated is not stated
[3] = biological target: T2, HIV-integrase (Human immunodeficiency virus type 1 group M subtype B, UniProt P12497); experiment: HIV-Integrase Inhibition Activity (SPA strand transfer assay); assay type: biochemical; conditions: recombinant integrase, SPA beads, P33 labeled target DNA
T2 construct: Recombinant integrase (0.26 ng) was incubated with the beads
Protocol: HIV-Integrase InhibitionActivity. To evaluate in-vitro activity against HIV-integrase, 5 pmole of biotin labeled substrate DNA was bound to 100 μg of Streptavidin coated PVT SPA beads (Amersham Pharmacia Biotech). Recombinant integrase (0.26 ng) was incubated with the beads for 90 min at 37° C. Unbound enzyme was removed by washing the complex followed by addition of inhibitors and 0.1 fmol of P33 labeled target DNA. The reaction was stopped by adding EDTA to a final concentration of 10 mM. Samples were counted in TopCountNXT (Packard) and the CPM was used as a measure of integration. The reaction condition was as described in A. Engelman and R. Craigie, J. Virol 69, 5908-5911 (1995). The sequences of substrate and target DNA were described in Nucleic Acid Research 22, 1121-1122 (1994). Activity equal to A refers to a compound having IC50=0.001 to 0.01 μM B=0.01-0.1, and C≧0.1 μM respectively.

| Structure (SMILES) | Ki [1] [µM] | EC50 [2] [µM] | IC50 [3] [µM] |
| --- | --- | --- | --- |
| CN(C)C(=O)C(=O)N1CCC2(CC1)OCCCn1c2nc(C(=O)NCc2ccc(F)cc2)c(O)c1=O [Example 75, 1-(2-(Dimethylamino)-2-oxoacetyl)-N-(4-fluorobenzyl)-3′-hydroxy-4′-oxo-4′,6′,7′,8′-tetrahydrospiro[piperidine-4,10′-pyrimido[2,1-c][1,4]oxazepine]-2′-carboxamide] | 0.003 to 0.05 | 0.01 to 0.1 |  |
| Cc1ncnn1-c1cc(F)ccc1CNC(=O)c1nc2n(c(=O)c1O)CCOC21CCN(C(=O)C(=O)N(C)C)C1 (centres unmarked) [Example 41, 1′-(2-(Dimethylamino)-2-oxoacetyl)-N-(4-fluoro-2-(5-methyl-1H-1,2,4-triazol-1-yl)benzyl)-3-hydroxy-4-oxo-6,7-dihydro-4H-spiro[pyrimido[2,1-c][1,4]oxazine-9,3′-pyrrolidine]-2-carboxamide] |  | > 0.1 | 0.01 to 0.1 |
| CN1CCN(S(=O)(=O)c2cc(F)ccc2CNC(=O)c2nc3n(c(=O)c2O)CCCOC32CCN(C(=O)OCc3ccccc3)CC2)CC1 [Example 50] |  | 0.01 to 0.1 | 0.01 to 0.1 |
| CS(=O)(=O)N1CCC2(C1)OCCn1c2nc(C(=O)NCc2ccc(F)cc2)c(O)c1=O (centres unmarked) [Example 38, N-(4-Fluorobenzyl)-3-hydroxy-1′-(methylsulfonyl)-4-oxo-6,7-dihydro-4H-spiro[pyrimido[2,1-c][1,4]oxazine-9,3′-pyrrolidine]-2-carboxamide] |  | 0.01 to 0.1 | 0.001 to 0.01 |
| CCOC(=O)N1CCC2(CC1)OCCn1c2nc(C(=O)NCc2ccc(F)cc2)c(O)c1=O [Example 31, Ethyl 2′-(4-fluorobenzylcarbamoyl)-3′-hydroxy-4′-oxo-6′,7′-dihydro-4′H-spiro[piperidine-4,9′-pyrimido[2,1-c][1,4]oxazine]-1-carboxylate] |  | 0.001 to 0.01 | 0.001 to 0.01 |
| O=C(NCc1ccc(F)cc1)c1nc2n(c(=O)c1O)CCOC21CCN(C(=O)OCc2ccccc2)C1 (centres unmarked) [Example 36, Benzyl 2-(4-fluorobenzylcarbamoyl)-3-hydroxy-4-oxo-6,7-dihydro-4H-spiro[pyrimido[2,1-c][1,4]oxazine-9,3′-pyrrolidine]-1′-carboxylate] |  | 0.001 to 0.01 | 0.001 to 0.01 |
| Cc1ccc(F)cc1S(=O)(=O)N1CCC2(CC1)OCCn1c2nc(C(=O)NCc2ccc(F)cc2-n2ncnc2C)c(O)c1=O [Example 21] |  | 0.001 to 0.01 | 0.01 to 0.1 |
| Cc1ncnn1-c1cc(F)ccc1CNC(=O)c1nc2n(c(=O)c1O)CCOC21CCN(C(=O)OCc2ccccc2)C1 (centres unmarked) [Example 37, Benzyl 2-(4-fluoro-2-(5-methyl-1H-1,2,4-triazol-1-yl)benzylcarbamoyl)-3-hydroxy-4-oxo-6,7-dihydro-4H-spiro[pyrimido[2,1-c][1,4]oxazine-9,3′-pyrrolidine]-1′-carboxylate] |  | 0.01 to 0.1 | 0.01 to 0.1 |
| CCOC(=O)N1CCC2(CC1)OCCn1c2nc(C(=O)NCc2ccc(F)cc2-n2cnc(C)n2)c(O)c1=O [Example 33, Ethyl 2′-(4-fluoro-2-(3-methyl-1H-1,2,4-triazol-1-yl)benzylcarbamoyl)-3′-hydroxy-4′-oxo-6′,7′-dihydro-4′H-spiro[piperidine-4,9′-pyrimido[2,1-c][1,4]oxazine]-1-carboxylate] |  | 0.001 to 0.01 | 0.001 to 0.01 |
| COC(=O)N1CCC2(CC1)OCCn1c2nc(C(=O)NCc2ccc(F)cc2-n2cncn2)c(O)c1=O [Example 3] |  | 0.001 to 0.01 | 0.001 to 0.01 |
| COC(=O)C(=O)N1CCC2(CC1)OCCn1c2nc(C(=O)NCc2ccc(F)cc2-n2ncnc2C)c(O)c1=O [Example 26, Methyl 2-(2′-(4-fluoro-2-(5-methyl-1H-1,2,4-triazol-1-yl)benzylcarbamoyl)-3′-hydroxy-4′-oxo-6′,7′-dihydro-4′H-spiro[piperidine-4,9′-pyrimido[2,1-c][1,4]oxazine]-1-yl)-2-oxoacetate] |  | 0.01 to 0.1 | 0.01 to 0.1 |
| Cc1ncnn1-c1cc(F)ccc1CNC(=O)c1nc2n(c(=O)c1O)CCOC21CCN(C(=O)OCc2ccccc2)CC1 [Example 23] |  | 0.001 to 0.01 | 0.01 to 0.1 |
| O=C(NCc1ccc(F)cc1-n1cncn1)c1nc2n(c(=O)c1O)CCOC21CCN(C(=O)c2ccccc2)CC1 [Example 9] |  | 0.001 to 0.01 | 0.01 to 0.1 |
| CN(C)C(=O)N1CCC2(CC1)OCCn1c2nc(C(=O)NCc2ccc(F)cc2)c(O)c1=O [Example 6] |  | 0.001 to 0.01 | 0.001 to 0.01 |
| Cc1ccc(S(=O)(=O)N2CCC3(CC2)OCCn2c3nc(C(=O)NCc3ccc(F)cc3-n3cncn3)c(O)c2=O)cc1 [Example 11] |  | 0.001 to 0.01 | 0.001 to 0.01 |
| Cc1ccc(S(=O)(=O)N2CCC3(CC2)OCCn2c3nc(C(=O)NCc3ccc(F)cc3S(=O)(=O)N3CCOCC3)c(O)c2=O)cc1 [Example 14] |  | 0.001 to 0.01 | 0.01 to 0.1 |

| Structure (SMILES) | Ki [1] [µM] | EC50 [2] [µM] | IC50 [3] [µM] |
| --- | --- | --- | --- |
| Cc1ccc(S(=O)(=O)N2CCC3(CC2)OCCn2c3nc(C(=O)NCc3ccc(F)cc3-n3cnc(C)n3)c(O)c2=O)cc1 [Example 15] |  | 0.001 to 0.01 | 0.01 to 0.1 |
| O=C(NCc1ccc(F)cc1)c1nc2n(c(=O)c1O)CCOC21CCN(C(=O)c2ccccc2)CC1 [Example 10] |  | 0.001 to 0.01 | 0.01 to 0.1 |
| CS(=O)(=O)N1CCC2(CC1)OCCn1c2nc(C(=O)NCc2ccc(F)cc2-n2cncn2)c(O)c1=O [Example 7] |  | 0.001 to 0.01 | 0.001 to 0.01 |
| CN(C)C(=O)C(=O)N1CCC2(CC1)OCCn1c2nc(C(=O)NCc2ccc(F)cc2)c(O)c1=O [Example 30, 1-(2-(Dimethylamino)-2-oxoacetyl)-N-(4-fluorobenzyl)-3′-hydroxy-4′-oxo-6′,7′-dihydro-4′H-spiro[piperidine-4,9′-pyrimido[2,1-c][1,4]oxazine]-2′-carboxamide] |  | 0.01 to 0.1 | 0.001 to 0.01 |
| O=C(O)C(=O)N1CCC2(CC1)OCCn1c2nc(C(=O)NCc2ccc(F)cc2)c(O)c1=O [Example 29, 2-(2′-(4-Fluorobenzylcarbamoyl)-3′-hydroxy-4′-oxo-6′,7′-dihydro-4′H-spiro[piperidine-4,9′-pyrimido[2,1-c][1,4]oxazine]-1-yl)-2-oxoacetic acid] |  | > 0.1 | 0.001 to 0.01 |
| O=C(NCc1ccc(F)cc1)c1nc2n(c(=O)c1O)CCOCC21CCN(C(=O)OCc2ccccc2)CC1 [Example 54] |  | 0.01 to 0.1 | 0.01 to 0.1 |
| CN(C)C(=O)C(=O)N1CCC2(C1)OCCn1c2nc(C(=O)NCc2ccc(F)cc2)c(O)c1=O (centres unmarked) [Example 40, 1′-(2-(Dimethylamino)-2-oxoacetyl)-N-(4-fluorobenzyl)-3-hydroxy-4-oxo-6,7-dihydro-4H-spiro[pyrimido[2,1-c][1,4]oxazine-9, 3′-pyrrolidine]-2-carboxamide] |  | 0.01 to 0.1 | 0.001 to 0.01 |
| Cc1ccc(F)cc1S(=O)(=O)N1CCC2(CC1)OCCn1c2nc(C(=O)NCc2ccc(F)cc2-n2cncn2)c(O)c1=O [Example 19] |  | 0.001 to 0.01 | 0.001 to 0.01 |
| Cc1ncn(-c2cc(F)ccc2CNC(=O)c2nc3n(c(=O)c2O)CCOC32CCN(S(=O)(=O)c3cc(F)ccc3C)CC2)n1 [Example 20] |  | 0.001 to 0.01 | 0.001 to 0.01 |
| Cc1ncnn1-c1cc(F)ccc1CNC(=O)c1nc2n(c(=O)c1O)CCOC21CCN(C(=O)C(=O)N(C)C)CC1 [Example 27, 1-(2-(Dimethylamino)-2-oxoacetyl)-N-(4-fluoro-2-(5-methyl-1H-1,2,4-triazol-1-yl)benzyl)-3′-hydroxy-4′-oxo-6′,7′-dihydro-4′H-spiro[piperidine-4,9′-pyrimido[2,1-c][1,4]oxazine]-2′-carboxamide] |  | > 0.1 | 0.01 to 0.1 |
| CC1CN(S(=O)(=O)c2cc(F)ccc2CNC(=O)c2nc3n(c(=O)c2O)CCCOC32CCN(C(=O)OCc3ccccc3)CC2)CC(C)N1 (centres unmarked) [Example 49] |  | 0.01 to 0.1 | 0.01 to 0.1 |
| O=C(NCc1ccc(F)cc1S(=O)(=O)N1CCOCC1)c1nc2n(c(=O)c1O)CCCOC21CCN(C(=O)OCc2ccccc2)CC1 [Example 52] |  | 0.01 to 0.1 | 0.01 to 0.1 |
| CN(C)S(=O)(=O)N1CCC2(CC1)OCCn1c2nc(C(=O)NCc2ccc(F)cc2-n2cncn2)c(O)c1=O [Example 1, 1-(N,N-Dimethylsulfamoyl)-N-(4-fluoro-2-(1H-1,2,4-triazol-1-yl)benzyl)-3′-hydroxy-4′-oxo-6′,7′-dihydro-4′H-spiro[piperidine-4,9′-pyrimido[2,1-c][1,4]oxazine]-2′-carboxamide] |  | 0.001 to 0.01 | 0.001 to 0.01 |
| CN(C)C(=O)N1CCC2(CC1)OCCn1c2nc(C(=O)NCc2ccc(F)cc2-n2cncn2)c(O)c1=O [Example 5] |  | 0.001 to 0.01 | 0.001 to 0.01 |
| Cc1ccc(S(=O)(=O)N2CCC3(CC2)OCCn2c3nc(C(=O)NC(C)c3ccc(F)cc3)c(O)c2=O)cc1 (centres unmarked) [Example 13] |  | 0.01 to 0.1 | 0.01 to 0.1 |
